Laboratory results: PMC3672920, “Sulfated Metabolites of Polychlorinated Biphenyls Are High-Affinity Ligands for the Thyroid Hormone Transport Protein Transthyretin” (Environmental Health Perspectives, 2013)
Structures can show the parent of a compound that is named as a salt.

What was measured:
recombinant hSULT1A1 = tested on: T1, recombinant hSULT1A1; experiment: Sulfotransferase assay (PAP formation, HPLC); assay type: in vitro ADME, human; settings: 200 µM PAPS, 37°C, pH 7.0, 10 min; for substrate for human SULT1A1: 0, 10, 20 or 30 µM OH-PCB, cytosolic extract of E. coli expressing hSULT1A1; for specific activity (rate of sulfation) with hSULT1A1, ranking in words: 10–30 µM OH-PCB
T1 construct: purchased Xenotech; host or cells: E. coli
Procedure: Sulfotransferase assay. The assays for sulfation of OH-PCBs catalyzed by hSULT1A1 were conducted according to a previously published procedure ([Liu et al. 2009]). Assay mixtures containing 0, 10, 20, or 30 µM of the potential substrate were preincubated at 37°C in the presence of 200 µM PAPS and 7.5 mM 2-mercaptoethanol in 250 mM potassium phosphate at pH 7.0. After adding 1 µL of cytosolic extract of E. coli expressing hSULT1A1 (10 µg cytosolic protein), the reaction mixture (total volume 30 µL) was incubated for 10 min before the reaction was terminated by the addition of 30 µL methanol. Samples (20 µL) were subsequently analyzed by HPLC to determine the amount of PAP formed in the reaction ([Sheng et al. 2001]).

TTR = target: T2, TTR (Homo sapiens, UniProt P02766); experiment: HPLC analysis of PCB sulfates after incubation with TTR (stability, reversibility); assay type: physicochemical; settings: 5 µM PCB sulfate, 0.5 µM TTR, phosphate buffer pH 7.4, 25°C, up to 120 min
T2 construct: TTR purified from human plasma (> 95%); purchased Sigma-Aldrich; host or cells: human plasma
Procedure: HPLC analysis of PCB sulfates. TTR (0.5 µM) and PCB sulfate (5 µM) were incubated in phosphate buffer (50 mM sodium phosphate, 100 mM NaCl; pH 7.4) at 25°C (± 0.5°C) for 120 min. After 0, 60, and 120 min, 20 µL samples were analyzed for PCB sulfates by chromatography on a C18 HPLC column with a linear acetonitrile gradient (15–95%) in triethylammonium acetate (1% vol/vol; pH 7.5). Detailed HPLC conditions and representative chromatograms are provided in Supplemental Material, Figure S3 (http://dx.doi.org/10.1289/ehp.1206198).
Supplemental Material, Fi g u r e S6: PCB sulfates are stable upon incubation with TTR, and the interaction is non-covalent. 5µM samples of PCB sulfates were incubated for up t o 120 […]
sodium phosphate, 100 mM NaCl, pH 7.4) at 25 °C. Their quantitative recover y (as compared to a corresponding 5 µM PCB sulfate standard) by HPLC indicated non- covalent binding interactions between PCB sulfates and TTR.
(1 picture or pasted object on this page, not shown here)

[1] = target: T3, TTR purified from human plasma (Homo sapiens, UniProt P02766); experiment: ANS displacement assay (fluorescence probe displacement) for binding to TTR; settings: low-affinity (second) binding site on TTR; ligand ≤ 2,000 nM; all data points fit to two-site binding equation; read-out: Kd2
T3 construct: TTR purified from human plasma (> 95%); purchased Sigma-Aldrich; host or cells: human plasma
Procedure: Three fluorescence measurements were averaged per determination, and at least three separate determinations were made at each ligand concentration. The protocol was optimized for ligand concentrations of ≤ 2,000 nM, and assays were conducted at 25°C (± 0.2°C) in quartz cuvettes with a 1-cm path length. […] Binding data were evaluated by fitting the means of each determination to both a one-site plus nonspecific binding equation [y = (Bmax1 × x)/(Kd1 + x) + Ns] and a two-site binding equation [y = (Bmax1 × x)/(Kd1 + x) + (Bmax2 × x)/(Kd2 + x)]. In these equations, Kd1 is the dissociation constant for the TTR-ligand complex and Kd2 is the dissociation constant for the TTR complex with two bound ligands, Bmax1 and Bmax2 are the relative changes in fluorescence required to saturate the respective binding sites and Ns is a constant representing low-affinity interactions. […] The variables x and y represent ligand concentrations and changes in fluorescence (Δ fluorescence), respectively. […] In order to determine Kd2 values, all available data points were fit to the two-site binding equation.

Row | Structure (SMILES) | melting point | substrate for human SULT1A1 (recombinant hSULT1A1) | specific activity (rate of sulfation) with hSULT1A1, ranking in words (recombinant hSULT1A1) | recovery of PCB sulfate by HPLC after incubation with TTR (stability) (TTR) | Kd [1]
1 | O=S(=O)(O)Oc1ccc(-c2cccc(Cl)c2)cc1Cl (as salt: ammonium) [4´PCB 11 sulfate, 3,3´-dichloro-4´-sulfooxy-biphenyl] | 220 °C (dec.) |  |  |  | 
2 | Oc1ccccc1-c1ccc(Cl)cc1 [2´OH-PCB 3, 4´-chloro-biphenyl-2-ol] |  | substrates | highest specific activities |  | 
3 | O=S(=O)(O)Oc1ccccc1-c1ccc(Cl)cc1 [2´PCB 3 sulfate, 2´-sulfooxy-4-chloro-biphenyl] |  |  |  | quantitatively recovered | 
4 | Oc1cccc(-c2ccc(Cl)cc2)c1 [3´OH-PCB 3, 4´-chloro-biphenyl-3-ol] |  | substrates | highest specific activities |  | 
5 | O=S(=O)(O)Oc1cccc(-c2ccc(Cl)cc2)c1 [3´PCB 3 sulfate, 3´-sulfooxy-4-chloro-biphenyl] |  |  |  | quantitatively recovered | 
6 | Oc1ccc(-c2ccc(Cl)cc2)cc1 [4´OH-PCB 3, 4´-chloro-biphenyl-4-ol] |  | substrates | slightly lower specific activities |  | 
7 | Oc1ccc(-c2cccc(Cl)c2)cc1Cl [4´OH-PCB 11, 3,3´-dichloro-biphenyl-4-ol] |  | substrates | slightly lower specific activities |  | 0.624 ± 0.207 µM
8 | Oc1ccc(-c2ccc(Cl)c(Cl)c2)cc1 [4´OH-PCB 12, 3´,4´-dichloro-biphenyl-4-ol] |  | substrates | slightly lower specific activities |  | 0.825 ± 0.047 µM
9 | O=S(=O)(O)Oc1ccc(-c2ccc(Cl)cc2)cc1 [4´PCB 3 sulfate, 4-chloro-4´-sulfooxy-biphenyl] |  |  |  | quantitatively recovered | 
10 | O=S(=O)(O)Oc1ccc(-c2cccc(Cl)c2)cc1Cl [4´PCB 11 sulfate, 3,3´-dichloro-4´-sulfooxy-biphenyl] |  |  |  | quantitatively recovered | 0.624 ± 0.063 µM
11 | O=S(=O)(O)Oc1ccc(-c2ccc(Cl)c(Cl)c2)cc1 [4´PCB 12 sulfate, 3,4-dichloro-4´-sulfooxy-biphenyl] |  |  |  | quantitatively recovered | 0.742 ± 0.058 µM
